Laboratory results: patent publication US20230278972A1, “SUBSTITUTED HALOALKYL SULFONANILIDE HERBICIDES” (FMC Corporation, priority 2020, published 2023)

Legend:
Format in all cases: in vivo
[1] = system: barnyardgrass (Echinochloa crus-galli); test: Test A preemergence, barnyardgrass; conditions: Preemergence; for Barnyardgrass plant response rating: 125 g ai/ha, visual injury on 0 to 100 scale (0 no effect, 100 complete control), approximately 10 days; for Plant response rating, Barnyardgrass: 500 g ai/ha, 0 to 100 scale (0 no effect, 100 complete control)
Text: (§1) Seeds of plant species selected from barnyardgrass (Echinochloa crus-galli), kochia (Bassia scoparia), ragweed (common ragweed, Ambrosia artemisiifolia), Ryegrass, Italian (Italian ryegrass, Lolium multiflorum), Foxtail, Giant (giant foxtail, Setaria faberi), and pigweed (Amaranthus retroflexus) were planted into a blend of loam soil and sand and treated preemergence with a directed soil spray using test chemicals formulated in a non-phytotoxic solvent mixture which included a surfactant. At the same time, plants selected from these weed species and also wheat (Triticum aestivum), corn (Zea mays), blackgrass (Alopecurus myosuroides), and galium (catchweed bedstraw, Galium aparine) were planted in pots containing the same blend of loam soil and sand and treated with postemergence applications of test chemicals formulated in the same manner. Plants ranged in height from 2 to 10 cm and were in the one- to two-leaf stage for the postemergence treatment. […] A dash (-) response means no test result.

[2] = system: kochia (Bassia scoparia); test: Test A preemergence, kochia; conditions: Preemergence; for Kochia plant response rating: 125 g ai/ha, visual injury on 0 to 100 scale (0 no effect, 100 complete control), approximately 10 days; for Plant response rating, Kochia: 500 g ai/ha, 0 to 100 scale (0 no effect, 100 complete control)
Text: as §1

[3] = system: ragweed (common ragweed, Ambrosia artemisiifolia); test: Test A preemergence, ragweed; conditions: Preemergence; for Ragweed plant response rating: 125 g ai/ha, visual injury on 0 to 100 scale (0 no effect, 100 complete control), approximately 10 days; for Plant response rating, Ragweed: 500 g ai/ha, 0 to 100 scale (0 no effect, 100 complete control)
Text: as §1

[4] = system: Ryegrass, Italian (Italian ryegrass, Lolium multiflorum); test: Test A preemergence, Ryegrass, Italian; conditions: Preemergence; for Ryegrass, Italian plant response rating: 125 g ai/ha, visual injury on 0 to 100 scale (0 no effect, 100 complete control), approximately 10 days; for Plant response rating, Ryegrass, Italian: 500 g ai/ha, 0 to 100 scale (0 no effect, 100 complete control)
Text: as §1

[5] = system: Foxtail, Giant (giant foxtail, Setaria faberi); test: Test A preemergence, Foxtail, Giant; conditions: Preemergence; for Foxtail, Giant plant response rating: 125 g ai/ha, visual injury on 0 to 100 scale (0 no effect, 100 complete control), approximately 10 days; for Plant response rating, Foxtail, Giant: 500 g ai/ha, 0 to 100 scale (0 no effect, 100 complete control)
Text: as §1

[6] = system: barnyardgrass (Echinochloa crus-galli); test: Test A postemergence, barnyardgrass; conditions: Postemergence, 0 to 100 scale (0 no effect, 100 complete control); for Barnyardgrass plant response rating: visual injury vs untreated controls after approx. 10 days
Text: as §1

[7] = system: kochia (Bassia scoparia); test: Test A postemergence, kochia; conditions: Postemergence, 0 to 100 scale (0 no effect, 100 complete control); for Kochia plant response rating: visual injury vs untreated controls after approx. 10 days
Text: as §1

[8] = system: ragweed (common ragweed, Ambrosia artemisiifolia); test: Test A postemergence, ragweed; conditions: Postemergence, 0 to 100 scale (0 no effect, 100 complete control); for Ragweed plant response rating: visual injury vs untreated controls after approx. 10 days
Text: as §1

[9] = system: Ryegrass, Italian (Italian ryegrass, Lolium multiflorum); test: Test A postemergence, Ryegrass, Italian; conditions: Postemergence, 0 to 100 scale (0 no effect, 100 complete control); for Ryegrass, Italian plant response rating: visual injury vs untreated controls after approx. 10 days
Text: as §1

[10] = system: Foxtail, Giant (giant foxtail, Setaria faberi); test: Test A postemergence, Foxtail, Giant; conditions: Postemergence, 0 to 100 scale (0 no effect, 100 complete control); for Foxtail, Giant plant response rating: visual injury vs untreated controls after approx. 10 days
Text: as §1

[11] = system: pigweed (Amaranthus retroflexus); test: Test A postemergence, pigweed; conditions: Postemergence, 0 to 100 scale (0 no effect, 100 complete control); for Pigweed plant response rating: visual injury vs untreated controls after approx. 10 days
Text: as §1

[12] = system: wheat (Triticum aestivum); test: Test A postemergence, wheat; conditions: Postemergence, 0 to 100 scale (0 no effect, 100 complete control); for Wheat plant response rating: visual injury vs untreated controls after approx. 10 days
Text: as §1

[13] = system: corn (Zea mays); test: Test A postemergence, corn; conditions: Postemergence, 0 to 100 scale (0 no effect, 100 complete control); for Corn plant response rating: visual injury vs untreated controls after approx. 10 days
Text: as §1

[14] = system: blackgrass (Alopecurus myosuroides); test: Test A postemergence, blackgrass; conditions: Postemergence, 0 to 100 scale (0 no effect, 100 complete control); for Blackgrass plant response rating: visual injury vs untreated controls after approx. 10 days
Text: as §1

[15] = system: galium (catchweed bedstraw, Galium aparine); test: Test A postemergence, galium; conditions: Postemergence, 0 to 100 scale (0 no effect, 100 complete control); for Galium plant response rating: visual injury vs untreated controls after approx. 10 days
Text: as §1

[16] = 125 g ai/ha, visual injury approx. 10 days
[17] = 500 g ai/ha, visual injury, approx. 10 days

Row | SMILES | Barnyardgrass plant response rating [1] | Plant response rating, Barnyardgrass [1] | Kochia plant response rating [2] | Plant response rating, Kochia [2] | Ragweed plant response rating [3] | Plant response rating, Ragweed [3] | Ryegrass, Italian plant response rating [4] | Plant response rating, Ryegrass, Italian [4] | Foxtail, Giant plant response rating [5] | Plant response rating, Foxtail, Giant [5] | Plant response rating, Barnyardgrass ([6]; 125 g ai/ha) | Barnyardgrass plant response rating ([6]; 500 g ai/ha) | Plant response rating, Kochia ([7]; 125 g ai/ha) | Kochia plant response rating ([7]; 500 g ai/ha) | Plant response rating, Ragweed ([8]; 125 g ai/ha) | Ragweed plant response rating ([8]; 500 g ai/ha) | Plant response rating, Ryegrass, Italian ([9]; 125 g ai/ha) | Ryegrass, Italian plant response rating ([9]; 500 g ai/ha) | Plant response rating, Foxtail, Giant ([10]; 125 g ai/ha) | Foxtail, Giant plant response rating ([10]; 500 g ai/ha) | also measured
1 | Cc1cc(C)c(C2=NOC3(C2)CC(C)OC(C)C3)cc1NS(=O)(=O)C(F)(F)F (single isomer, unassigned) [Compound 171] | 90 | 100 | 70 | 90 | 80 | 90 | 100 | 100 | 100 | 100 | 90 | 90 | 30 | 70 | 40 | 90 | 80 | 80 | 60 | 90 | Plant response rating, Pigweed ([11]; 125 g ai/ha): 60; Pigweed plant response rating ([11]; 500 g ai/ha): 80; Plant response rating, Wheat ([12]; 125 g ai/ha): 60; Wheat plant response rating ([12]; 500 g ai/ha): 60; Plant response rating, Corn ([13]; 125 g ai/ha): 80; Corn plant response rating ([13]; 500 g ai/ha): 80; Plant response rating, Blackgrass ([14]; 125 g ai/ha): 40; Blackgrass plant response rating ([14]; 500 g ai/ha): 80; Plant response rating, Galium ([15]; 125 g ai/ha): 60; Galium plant response rating ([15]; 500 g ai/ha): 90
2 | Cc1cc(C)c(C2=NOC3(C2)CC(C)OC(C)C3)cc1NS(=O)(=O)C(F)(F)F (single isomer, unassigned) [Compound 173] | 90 | 90 | 60 | 90 | 90 | 90 | 90 | 100 | 100 | 100 | 80 | 90 | 50 | 80 | 80 | 90 | 70 | 80 | 90 | 90 | Plant response rating, Pigweed ([11]; 125 g ai/ha): 80; Pigweed plant response rating ([11]; 500 g ai/ha): 90; Plant response rating, Wheat ([12]; 125 g ai/ha): 70; Wheat plant response rating ([12]; 500 g ai/ha): 70; Plant response rating, Corn ([13]; 125 g ai/ha): 70; Corn plant response rating ([13]; 500 g ai/ha): 80; Plant response rating, Blackgrass ([14]; 125 g ai/ha): 50; Blackgrass plant response rating ([14]; 500 g ai/ha): 60; Plant response rating, Galium ([15]; 125 g ai/ha): 90; Galium plant response rating ([15]; 500 g ai/ha): 90
3 | CCc1cc(-c2cc(N(S(=O)(=O)C(F)(F)F)S(=O)(=O)C(F)(F)F)c(C)cc2C)c(=O)n(C)n1 [Compound 28] | 60 | 100 | 70 | 90 | 0 | 30 | 50 | 90 | 30 | 90 |  |  |  |  |  |  |  |  |  |  | Plant response rating, Barnyardgrass [6, 16]: 0; Plant response rating, Barnyardgrass [6, 17]: 80; Plant response rating, Kochia [7, 16]: 0; Plant response rating, Kochia [7, 17]: 30; Plant response rating, Ragweed [8, 16]: 20; Plant response rating, Ragweed [8, 17]: 80; Plant response rating, Ryegrass, Italian [9, 16]: 0; Plant response rating, Ryegrass, Italian [9, 17]: 0; Plant response rating, Foxtail, Giant [10, 16]: 0; Plant response rating, Foxtail, Giant [10, 17]: 10; Plant response rating, Pigweed [11, 16]: 0; Plant response rating, Pigweed [11, 17]: 40; Plant response rating, Wheat [12, 16]: 30; Plant response rating, Wheat [12, 17]: 50; Plant response rating, Corn [13, 16]: 0; Plant response rating, Corn [13, 17]: 0; Plant response rating, Blackgrass [14, 16]: 0; Plant response rating, Blackgrass [14, 17]: 30; Plant response rating, Galium [15, 16]: 20; Plant response rating, Galium [15, 17]: 70
